Assay [1] relates to animal model of atopic dermatitis. The assay is described as follows: DNCB-induced animal model of atopic dermatitis, topical application. It is filed as in vivo, BALB/c mice. The following applies: 0.1% applied to ear.
Assay [2] addresses EGR-1 (Homo sapiens, UniProt P18146). Put plainly: EGR-1 DNA binding activity assay (EDBA). Further details: made in house. The settings on record: EGR-1 DNA binding inhibitory activity; EGR-1 overexpressing cell lysate; absorbance at 450 nm; compound concentration not given. The method, then:
In this experiment, the inhibitory effect of the compounds of the present invention on EGR-1 binding activity was evaluated using an EGR-1 DNA binding activity assay (EDBA).
Single-stranded sense and antisense oligonucleotides of the following EGR-1 binding sequence (EBS) were prepared by outsourcing to Bioneer Co., Ltd. (Daejeon, Korea). In this case, the 5'-end of the sense oligonucleotide was labeled with biotin. The sense and antisense oligonucleotides were heated at 95 °C for 5 minutes and then left overnight at room temperature to hybridize the sense and antisense oligonucleotides. Hereinafter, the hybridized sense and antisense oligonucleotides are referred to as biotin-EBS. • Sense sequence: biotin-5'-[…]-3' • Antisense sequence: 5'-[…]-3'
Avidin protein was coated on a 96-well plate (purchased from Thermo Fisher Scientific), and biotin-EBS was added to the plate at a concentration of 0.5 pmol/50 µL/well, followed by reaction at 37 °C for 1 hour to allow biotin-EBS oligonucleotide to be attached to the plate. After washing three times with phosphate buffer saline containing 0.05% Tween 20 (PBS/Tween 20) to remove unattached biotin-EBS oligonucleotides, 200 µL of PBS/Tween 20 solution containing 2% bovine serum albumin (BSA) was added to each well, followed by reaction at 37 °C for 1 hour to block the surface of the plate where no oligonucleotide was attached.
The solution containing the sample compound and the EGR-1 protein was added to the biotin-EBS oligonucleotide coated plate prepared in step (2).
The compound sample (1 µL) was reacted with the EGR-1 overexpressing cell lysate containing 10 mM Tris, pH 7.5, 50 mM KCl, 2% BSA and 8% glycerol at room temperature for 30 minutes, and then added to a reaction well coated with biotin-EBS and further reacted at room temperature for one hour. After washing three times with PBS/Tween 20 solution, an EGR-1 antibody was added to the PBS solution supplemented with 2% BSA and 5 mM NaCl in an amount of 50 µL per each well. The mixture was incubated at room temperature for one hour, washed three times with PBS/Tween 20 solution, and then treated with horseradish peroxidase-conjugated secondary antibody (Goat anti-rabbit IgG antibody, Cell Signaling Technology company, Danvers, Mass., USA) diluted by 1:1000 at room temperature for one hour. After washing five times with PBS/Tween 20 solution, a substrate tetramethylbenzidine solution was added to each well in an amount of 50 µL. After reacting for 5 minutes, the reaction was stopped by adding 100 µL of 2 N sulfuric acid solution. The DNA binding inhibitory activity of EGR-1 was measured by absorbance at 450 nm according to Equation 1 below. EGR-1 DNA binding inhibitory activity (%) = 100−{(As/Ap)×100} [formula]
As: absorbance of a sample prepared by reacting an EGR-1-overexpressing cell lysate with the compound.
Ap: absorbance of the sample treated only with EGR-1-overexpressing cell lysate.

Chain of EGR-1 (P18146 whole entry): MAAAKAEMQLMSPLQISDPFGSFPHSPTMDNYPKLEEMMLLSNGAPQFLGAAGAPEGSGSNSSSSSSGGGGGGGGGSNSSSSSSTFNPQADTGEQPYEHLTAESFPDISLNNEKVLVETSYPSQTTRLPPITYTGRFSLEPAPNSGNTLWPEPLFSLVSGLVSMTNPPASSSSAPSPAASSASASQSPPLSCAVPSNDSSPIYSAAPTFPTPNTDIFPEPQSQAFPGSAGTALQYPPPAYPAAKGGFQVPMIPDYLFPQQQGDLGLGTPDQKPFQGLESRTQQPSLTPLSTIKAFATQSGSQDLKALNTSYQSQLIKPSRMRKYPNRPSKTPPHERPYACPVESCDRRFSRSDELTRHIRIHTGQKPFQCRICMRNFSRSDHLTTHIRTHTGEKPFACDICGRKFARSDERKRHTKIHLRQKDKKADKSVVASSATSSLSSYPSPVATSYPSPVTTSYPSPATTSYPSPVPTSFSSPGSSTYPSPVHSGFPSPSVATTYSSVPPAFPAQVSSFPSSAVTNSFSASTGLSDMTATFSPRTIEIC

In assay [1] (day 22, H&E staining, normal 24.47±2.353, DNCB only 37.27±4.393), `C[C@@H]1CCN(C(=O)CC#N)C[C@@H]1N(C)c1ncnc2[nH]ccc12` [tofacitinib, Tofacitinib, reference compound] yielded an epidermal thickness of 27.09±1.719 µm. For the same compound, in assay [1] (day 22, H&E staining, normal 143.2±19.61, DNCB only 197.5±17.83), the dermal thickness is given as 154.5±11.32 µm. Also, the expression of filaggrin entry in assay [1] (immunofluorescence of skin tissue, FIG. 17B) is recorded as “recovered to a level similar to normal tissue”. Further, the “expression of TSLP” value in assay [1] (immunofluorescence of skin tissue, compared to positive control group, FIG. 17A) is “significantly decreased”. The “expression of MPO (neutrophil marker)” value in assay [1] (immunohistochemistry, FIG. 16C) is reported as “decreased similar to normal tissue”. Moreover, the “expression of F4/80 (macrophage marker)” value in assay [1] (immunohistochemistry, FIG. 16D) is on record as “decreased similar to normal tissue”. Further, in assay [1] (toluidine blue staining, compared to the positive control group, FIG. 16A), the mast cell infiltration result is given as “significantly reduced”. Besides, the “number of mast cells infiltrated” value in assay [1] (toluidine blue staining, normal 11±3, DNCB 38±6) was 14±5 per 2.5 cm^2.
With `Cc1ccc2c(c1)/C(=N/NC(=S)Nc1ccccc1)C(=O)N2` [Compound 29, (Z)-2-(5-methyl-2-oxoindolin-3-ylidene)-N-phenylhydrazinethioamide], in assay [2], the “Inhibition Rate (%)” value is 27.50%.
The same measure, in the same setting: next, `COc1ccc2c(c1)NC(=O)/C2=N\NC(=S)Nc1ccc(F)cc1` [Compound 67, (Z)-N-(4-fluorophenyl)-2-(6-methoxy-2-oxoindolin-3-ylidene)hydrazin-1-carbothioamide]: 25.90%; `COc1ccc(NC(=S)N/N=C2\C(=O)Nc3ccc(Br)cc32)cc1` [Compound 55, (Z)-2-(5-bromo-2-oxoindolin-3-ylidene)-N-(4-methoxyphenyl)hydrazinethioamide]: 11.00%.
On to `NNC(=S)Nc1cccc(C(F)(F)F)c1` [Compound 1, N-(3-(trifluoromethyl)phenyl)hydrazinethioamide], for which, in assay [2], the “Inhibition Rate (%)” value is 23.60%.
On the same count and under the same terms, next, `Cc1cccc(NC(=S)NN)c1` [Compound 11, N-(m-tolyl)hydrazinethioamide]: 18.67%; `Cc1ccc2c(c1)/C(=N/NC(=S)NCc1ccccc1)C(=O)N2` [Compound 74, (Z)-N-benzyl-2-(5-methyl-2-oxoindolin-3-ylidene)hydrazinethioamide]: 40.60%.
On the same count and under the same terms, next, `NC(=S)N/N=C1\C(=O)Nc2cccc(Br)c21` [Compound 40, (Z)-2-(4-bromo-2-oxoindolin-3-ylidene)hydrazinethioamide]: 27.33%; `CC(C)NC(=S)NN` [Compound 7, N-isopropylhydrazinethioamide]: 23.33%.
In the case of `O=C1Nc2ccc(F)cc2/C1=N/NC(=S)Nc1ccc(C(F)(F)F)cc1` [Compound 17, (Z)-2-(5-fluoro-2-oxoindolin-3-ylidene)-N-(4-(trifluoromethyl)phenyl)hydrazinethioamide], the “Inhibition Rate (%)” value in assay [2] is on record as 25.57%.
Same read-out and setting: next, `O=C1Nc2cc(Br)ccc2/C1=N/NC(=S)Nc1ccc([N+](=O)[O-])cc1` [Compound 58, (Z)-2-(6-bromo-2-oxoindolin-3-ylidene)-N-(4-nitrophenyl)hydrazinethioamide]: 46.97%; `O=C1Nc2ccc(Br)cc2/C1=N/NC(=S)Nc1ccccc1` [Compound 44, (Z)-2-(5-bromo-2-oxoindolin-3-ylidene)-N-phenylhydrazinethioamide]: 5.67%; `COc1ccc2c(c1)NC(=O)/C2=N\NC(=S)Nc1cccc(C)c1` [Compound 28, (Z)-2-(6-methoxy-2-oxoindolin-3-ylidene)-N-(m-tolyl)hydrazinethioamide]: 28.67%.
Still for that read-out and setting: next, `COc1ccccc1NC(=S)N/N=C1\C(=O)Nc2ccc(C)cc21` [Compound 31, (Z)-N-(2-methoxyphenyl)-2-(5-methyl-2-oxoindolin-3-ylidene)hydrazinethioamide]: 42.73%.
Same read-out and setting: next, `O=C1Nc2cccc(Br)c2/C1=N/NC(=S)Nc1ccc([N+](=O)[O-])cc1` [Compound 37, (Z)-2-(4-bromo-2-oxoindolin-3-ylidene)-N-(4-nitrophenyl)hydrazinethioamide]: 36.33%.

Values taken from EP4799619A1, “COMPOUND TARGETING EGR-1 AND USE THEREOF FOR TREATMENT OF ATOPIC DERMATITIS” (AgeraMedi, Inc., priority 2023, dated 2025).
